Data reported in US20090298903A1, “USE OF TETRAMIC ACID DERIVATIVES FOR INSECT CONTROL” (priority 2006, published 2009).

Legend:
Type in all cases: in vivo
[1] = system: Frankliniella occidentalis; test: Example 5: aubergines against Frankliniella occidentalis; details: mixed populations on leaves
Procedure: Plots 6 m^2 in size which are planted with aubergines cv. “Soraya” are treated, in three replications, against Frankliniella occidentalis. The application is effected with a motor-operated knapsack sprayer. Here, the active substances Example (I-4) (240 SC) and Example (I-9) (240 SC), in a tank mix together with 0.1% a.s. rapeseed oil methyl ester (500 EW) and the commercial standard Spinosad (480 SC), are tested at the specified application rates. The water application rate is 1500 l/ha.
The test is evaluated 25, 32 and 39 days after the treatment by scoring the destruction rate of the mixed populations on the leaves.

sawflies Hoplocampa sp. = test: Example 31: apple trees against sawflies; details: 57 d after treatment, larvae on fruits, Thiacloprid (SC 480) 48 + deltamethrin 3.75 tank mix, (I-4) (150 OD) 48 g a.s./ha/m crown level
Procedure: Apple trees cv. “Holsteiner Cox” in plots approx. 20 m^2 in size are treated, in 4 replications, against sawflies Hoplocampa sp. Here, the active substance Example (I-4) (150 OD) at the specified application rate is tested against a tank mix of the commercial standards Thiacloprid (SC 480) and Deltamethrin-liquid in the specified application rates. The application is carried out with a knapsack sprayer. Here, the treatment is effected with a water application rate of 500 l/ha/m crown level.
The test is evaluated 57 days after the treatment by scoring the destruction of the larvae on the fruits with the aid of the Abbott method.

Dasineura mali = test: Example 19 a): apple trees against Dasineura mali; details: 59 d after treatment; larvae, apple twigs; Pirimicarb (50 WG) 125, (I-4) (100 OD) 72 g a.s./ha/m crown level
Procedure: Apple trees cv. “Elan” which are approximately 16 years old are treated, in 3 replications, against the Dasineura mali. Here, the active substance Example (I-4) (100 OD) is tested at the specified application rate against the commercial standard and Pirimicarb (50 WG) at the specified application rate. The application is carried out with a spray diffuser. Here, the treatment is effected with a water application rate of 1000 l/ha/m crown level.
The test is evaluated 59 days after the treatment by scoring the destruction of the larvae on the basis of the adults present on the twigs with the aid of the Abbott method.

[2] = system: Leptinotarsa decemlineata; test: Example 23: potatoes against Leptinotarsa decemlineata
Procedure: Plots approx. 10 m^2 in size which are planted with potatoes “Quarta” are treated, in three replications, against Leptinotarsa decemlineata. The application is carried out with a knapsack sprayer operated with pressurized air. Here, the active substance Example (I-4) (240 SC), in a tank mix together with 0.2% a.s. rapeseed oil methyl ester (500 EW) and the commercial standard Deltamethrin (100 EC), is tested at the specified application rate. The water application rate is 300 l/ha.
The test is evaluated 3, 8 and 20 days after the treatment by scoring the destruction rate of the animals (larvae) on the plants.

Thrips tabaci = test: Example 6: onions against Thrips tabaci; details: population on leaves
Procedure: Plots 15 m^2 in size which are planted with onions are treated, in two replications, against Thrips tabaci. The application is effected with a knapsack sprayer which is operated with pressurized air. Here, the active substances Example (I-4), in a tank mix together with 0.2% a.s. rapeseed oil methyl ester (500 EW) and the commercial standard dimethoate and (380 EC), are tested at the specified application rates in a tank mix with 0.9% a.s. E-actipron (900 EC). The water application rate is 300 l/ha.
The test was evaluated 43 and 62 days after the treatment by scoring the destruction rate of the population on the leaves.

[3] = system: Frankliniella occidentalis; test: Example 2: bell peppers against Frankliniella occidentalis; details: Acrinathrin 60, (I-9) 54, (I-4) 60 g a.s./ha, (I-9)/(I-4) 240 SC + 0.1% rapeseed oil methyl ester
Procedure: Plots 10 m^2 in size which are planted with bell peppers cv. “Zingaro” are treated, in three replications, against Frankliniella occidentalis. The application is effected with a knapsack sprayer which is operated with pressurized air. Here, the active substances Example (I-9) (240 SC) and Example (I-4) (240 SC), in the form of a tank mix together with 0.1% a.s. rapeseed oil methyl ester (500 EW) and the commercial standard acrinathrin (075 EW), are applied at the specified application rates. Two applications are carried out at an interval of 24 days, with a water application rate of 1000 l/ha.
The test is evaluated 17 and 21 days after treatment 1 and 4 days after treatment 2 by scoring the destruction of the animals (nymphs) on the flowers.

Dasineura pyri = test: Example 19b): pear trees against Dasineura pyri; details: 9 d after treatment 2, larvae in rolled leaves
Procedure: Fully-grown pear trees cv. “Conference” of crown height approx. 3.5 m are treated, in four replications, against Dasineura pyri. Here, the active substance Example (I-4) is tested as (150 OD) and (240 SC) together with 0.1% a.s. rapeseed oil methyl ester (Mero 733 1R) in a tank mix at the specified application rate against the commercial standard Endosulfan (350 EC) at the specified application rate. The application is carried out with a spray diffuser. Here, the treatment is effected with a water application rate of 1000 l/ha/m crown level. Two applications are carried out at an interval of 7 days.
The test is evaluated 9 days after treatment 2 by scoring the destruction rate of the larvae in the rolled leaves, using the Abbott method.

With `CCOC(=O)OC1=C(c2cc(C)ccc2C)C(=O)N[C@]12CC[C@@H](OC)CC2` [Example (I-4)] the “Efficacy (% Abbott) 25 d” value ([1]; 25 d after treatment, Spinosad (480 SC) 0.012, (I-9) 0.0054, (I-4) 0.012 % a.s., 240 SC + 0.1% rapeseed oil methyl ester) was 92.1 % Abbott, the “Efficacy (% Abbott) 32 d” value ([1]; 32 d after treatment, Spinosad 0.012, (I-9) 0.0054, (I-4) 0.012 % a.s.) was 88.3 % Abbott and the “Efficacy (% Abbott) 39 d” value ([1]; 39 d after treatment, Spinosad 0.012, (I-9) 0.0054, (I-4) 0.012 % a.s.) was 89.7 % Abbott. For the same molecule, the “Efficacy (%) Abbott 57 d” value (sawflies Hoplocampa sp.) was 98%, the “Efficacy (%) Abbott 59 d” value (Dasineura mali) was 95.1% and the “Efficacy (% Abbott) 3 d” value ([2]; 3 d after treatment, larvae, Deltamethrin (100 EC) 75, (I-4) (240 SC + 0.2% rapeseed oil methyl ester) 72 g a.s./ha) was 53.3 % Abbott. For the same molecule, the “Efficacy (% Abbott) 8 d” value ([2]; 8 d after treatment, Deltamethrin 75, (I-4) 72 g a.s./ha) was 72.7 % Abbott, the “Efficacy (% Abbott) 20 d” value ([2]; 20 d after treatment, Deltamethrin 75, (I-4) 72 g a.s./ha) was 84.4 % Abbott and the “Efficacy (% Abbott) 43 d” value (Thrips tabaci; 43 d after treatment, Dimethoate (380 EC + 0.9% E-actipron) 380, (I-4) (+ 0.2% rapeseed oil methyl ester) 96 g a.s./ha) was 83.0 % Abbott. The “Efficacy (% Abbott) 62 d” value (Thrips tabaci; 62 d after treatment, Dimethoate 380, (I-4) 96 g a.s./ha) was 84.5 % Abbott, the “Efficacy (% Abbott) 4 d (2)” value ([3]; 4 d after treatment 2, nymphs on flowers) was 80 % Abbott and the “Efficacy (% Abbott) 17 d (1)” value ([3]; 17 d after treatment 1, nymphs on flowers) was 71 % Abbott. The “Efficacy (% Abbott) 21 d (1)” value ([3]; 21 d after treatment 1, nymphs on flowers) was 85 % Abbott, the “Efficacy (% Abbott) 9 d” value (Dasineura pyri; (I-4) as 150 OD, 150 g a.s./ha/m crown level) was 100 % Abbott and the “Efficacy (% Abbott) 9 d” value (Dasineura pyri; Endosulfan (350 EC) 472.5, (I-4) as 240 SC + Mero (0.1% rapeseed oil methyl ester) 120 g a.s./ha/m crown level) was 94.6 % Abbott.
